# In US20220031684A1, “PROPHYLACTIC EFFICACY OF SEROTONIN 4 RECEPTOR AGONISTS AGAINST STRESS” (THE TRUSTEES OF COLUMBIA UNIVERSITY IN THE CITY OF NEW YORK, priority 2019, published 2022):
# Where a name gives a salt, the structure may show the parent alone.
# Experiments:
# 129S6/SvEv mice [1] = assay: 3-shock contextual fear conditioning (CFC); assay type: in vivo
# Experimental: (§1) This chronic CORT elevation dysregulates the hypothalamic-pituitary-adrenal axis (HPA) in a manner similar to that observed in clinical depression. The dose and duration of CORT treatment was selected based on previous studies. CORT (35 μg/ml, equivalent to about 5 mg/kg/day) dissolved in 0.45% hydroxypropyl-o-cyclodextrin (0-CD) or vehicle (VEH) (0.45% j-CD) was available ad libitum in the drinking water in opaque bottles to protect it from light. VEH- and CORT-treated water was changed every 3 days to prevent possible degradation. Contextual Fear Conditioning (CFC): A 3-shock CFC procedure was administered as previously published. Briefly, mice were placed into context A and administered 3 2-s shocks (0.75 mA) at 180 s, 240 s or 300 s following placement into context A. Mice were removed from the context 15 s following the termination of shock (at 317 s). For context retrieval, mice were placed back into context A for 300 s. Electrophysiology: Electrophysiology was conducted as previously described. Statistical Analysis: Results from data analyses are expressed as means±SEM. Alpha was set to 0.05 for all analyses. Data were analyzed using GraphPad Prism v7.0 or v8.0. For all experiments, unless otherwise noted, one- or two-way ANOVAs with repeated-measures were applied to the data as appropriate. Significant main effects and/or interactions were followed by Fisher's PLSD post hoc analysis or unpaired t-tests. Drugs: All drugs were prepared in physiological saline and all injections were administered intraperitoneally (i.p.) in volumes of 0.1 cc per […] body weight unless otherwise noted. Fluoxetine hydrochloride (Flx): Flx (BioTrend Chemicals AG, BG197, Zurich, Germany) was administered in the drinking water (18 mg/kg/day) for 3 weeks before the start of CORT. […] (R,S)-ketamine (K): (R,S)-ketamine (Ketaset III, Ketamine HCl injection, Fort Dodge Animal Health, Fort Dodge, Iowa) was administered in a single dose at 30 mg/kg of body weight 1 week before the start of CFC. […] PF-04995274: PF-04995274 (Sigma, Catalog No. 1331782-27-4, St. Louis, Mo.) was administered a single dose at 3 or 10 mg/kg of body weight 1 week before the start of CFC. PF-04995274 was dissolved in saline using an ultrasonic homogenizer (BioLogics, Model 3000, Manassas, Va.). Osmotic minipump implantation: ALZET osmotic minipumps (Model 2004, […], 28 days) were implanted subcutaneously under isoflurane anesthesia as previously described [S2]. Osmotic minipumps were rotated under the skin two to three times per week. Behavioral Assays: All experiments were approved by the Institutional Animal Care and Use Committee (IACUC) at the New York Psychiatric Institute (NYSPI). Elevated Plus Maze (EPM): Testing was performed as previously described [S3]. Briefly, the maze is a plus-cross-shaped apparatus consisting of four arms, two open and two enclosed by walls, linked by a central platform at a height of 50 cm from the floor. Mice were individually placed in the center of the maze facing an open arm and were allowed to explore the maze for 5 min. The time spent in and the number of entries into the open arms was used as an anxiety index. Videos were scored using ANY-maze behavior tracking software (Stoelting, Wood Dale, Ill.). Novelty-Suppressed Feeding: The NSF is a conflict test that elicits competing motivations: the drive to eat and the fear of venturing into the center of a brightly lit arena. The latency to feed is used as an index of anxiety-like behavior, because classical anxiolytic drugs decrease this measure. The NSF test was carried out during an 8 min period as previously described [S3]. Briefly, the testing apparatus consisted of a plastic box (50×50×20 cm), the floor of which was covered with approximately 2 cm of bedding. For 129S6/SvEv experiments, mice were food restricted for 12 h. For the C57BL/6N experiments, mice were food restricted for 24 h. […]
# 129S6/SvEv mice [2] = assay: Forced swim test (FST) after CFC; assay type: in vivo
# Experimental: as §1
# [3] = biological target: hERG (human Ether-a-go-go Related Gene) channels (Homo sapiens, UniProt Q12809); details: cited from earlier work
# 5-HT4R = details: cited from earlier work
# CA3 pyramidal cells = assay: Whole-cell voltage clamp recordings of spontaneous EPSCs in CA3 slices; assay type: cell-based, mice; details: (R,S)-ketamine 30 mg/kg or prucalopride 3 mg/kg injected 1 week before slicing
# Experimental: as §1
# [4] = FIG. 4 cohort, Male, FIG. 4C, RMANOVA, Fisher's LSD
# [5] = FIG. 4 cohort, Male, FIG. 4D, ANOVA, Fisher's LSD
# [6] = FIG. 4 cohort, Male, FIG. 4F, RMANOVA, Fisher's LSD
# [7] = FIG. 4 cohort, Male, FIG. 4G, ANOVA, Fisher's LSD
# Sequence of hERG (human Ether-a-go-go Related Gene) channels (Q12809 whole entry): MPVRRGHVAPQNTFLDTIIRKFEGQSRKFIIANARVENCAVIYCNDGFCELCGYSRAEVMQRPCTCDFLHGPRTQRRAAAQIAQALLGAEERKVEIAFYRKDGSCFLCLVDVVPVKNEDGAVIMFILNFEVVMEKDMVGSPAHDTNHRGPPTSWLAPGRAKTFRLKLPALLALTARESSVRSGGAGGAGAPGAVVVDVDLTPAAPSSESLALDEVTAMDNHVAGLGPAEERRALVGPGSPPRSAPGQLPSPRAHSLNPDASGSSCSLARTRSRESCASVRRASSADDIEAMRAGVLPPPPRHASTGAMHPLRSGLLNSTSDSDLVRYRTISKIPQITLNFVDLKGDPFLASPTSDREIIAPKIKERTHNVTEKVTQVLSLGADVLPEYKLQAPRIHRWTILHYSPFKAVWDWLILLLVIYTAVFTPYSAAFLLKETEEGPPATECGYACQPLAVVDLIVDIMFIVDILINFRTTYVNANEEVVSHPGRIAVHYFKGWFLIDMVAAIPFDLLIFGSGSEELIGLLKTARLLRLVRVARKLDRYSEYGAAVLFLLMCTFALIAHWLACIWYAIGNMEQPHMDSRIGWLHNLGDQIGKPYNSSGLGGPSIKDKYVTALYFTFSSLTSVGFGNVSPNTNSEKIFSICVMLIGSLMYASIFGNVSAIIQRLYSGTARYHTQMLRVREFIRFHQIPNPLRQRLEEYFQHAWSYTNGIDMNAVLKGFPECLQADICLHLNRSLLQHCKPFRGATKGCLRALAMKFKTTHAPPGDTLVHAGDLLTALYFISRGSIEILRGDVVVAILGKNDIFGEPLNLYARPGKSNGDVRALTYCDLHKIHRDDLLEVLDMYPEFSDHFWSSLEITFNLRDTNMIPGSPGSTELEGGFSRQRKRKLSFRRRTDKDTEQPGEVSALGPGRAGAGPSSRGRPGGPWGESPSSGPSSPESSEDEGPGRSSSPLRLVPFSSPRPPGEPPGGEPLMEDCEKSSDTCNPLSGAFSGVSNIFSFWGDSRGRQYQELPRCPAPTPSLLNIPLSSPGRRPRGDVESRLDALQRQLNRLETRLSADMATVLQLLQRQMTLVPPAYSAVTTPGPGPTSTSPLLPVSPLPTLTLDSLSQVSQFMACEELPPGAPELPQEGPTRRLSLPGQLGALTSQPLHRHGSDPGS
structure (smiles),measurement,setting,value
"COCCCN1CCC(NC(=O)c2cc(Cl)c(N)c3c2OCC3)CC1 [Prucalopride, 4-amino-5-chloro-2,3-dihydro-N-[1-3-methoxypropyl)-4-piperidinyl]-7-benzofuran carboxamide monohydrochloride]","p, CFC Re-exposure Freezing (%), Prucalopride (3 mg/kg) vs. PF04995274 (3 mg/kg)",129S6/SvEv mice [1]; [4],0.0014
same,"p, CFC Re-exposure Freezing (%), Prucalopride (3 mg/kg) vs. PF04995274 (10 mg/kg)",129S6/SvEv mice [1]; [4],0.2229
same,"p, CFC Re-exposure Freezing (%), Prucalopride (3 mg/kg) vs. Prucalopride (10 mg/kg)",129S6/SvEv mice [1]; [4],0.0004
same,"p, CFC Re-exposure Freezing (%), Prucalopride (10 mg/kg) vs. PF04995274 (3 mg/kg)",129S6/SvEv mice [1]; [4],0.7981
same,"p, CFC Re-exposure Freezing (%), Prucalopride (10 mg/kg) vs. PF04995274 (10 mg/kg)",129S6/SvEv mice [1]; [4],0.0568
same,"p, CFC Re-exposure Freezing (%), Saline vs. Prucalopride (3 mg/kg)",129S6/SvEv mice [1]; [4],0.0004
same,"p, CFC Re-exposure Freezing (%), Saline vs. Prucalopride (10 mg/kg)",129S6/SvEv mice [1]; [4],0.4723
same,"p, CFC Re-exposure, Prucalopride (3 mg/kg) vs. PF04995274 (3 mg/kg)",129S6/SvEv mice [1]; [5],0.0014
same,"p, CFC Re-exposure, Prucalopride (3 mg/kg) vs. PF04995274 (10 mg/kg)",129S6/SvEv mice [1]; [5],0.2229
same,"p, CFC Re-exposure, Prucalopride (3 mg/kg) vs. Prucalopride (10 mg/kg)",129S6/SvEv mice [1]; [5],0.0004
same,"p, CFC Re-exposure, Prucalopride (10 mg/kg) vs. PF04995274 (3 mg/kg)",129S6/SvEv mice [1]; [5],0.7981
same,"p, CFC Re-exposure, Prucalopride (10 mg/kg) vs. PF04995274 (10 mg/kg)",129S6/SvEv mice [1]; [5],0.0568
same,"p, CFC Re-exposure, Saline vs. Prucalopride (3 mg/kg)",129S6/SvEv mice [1]; [5],0.0004
same,"p, CFC Re-exposure, Saline vs. Prucalopride (10 mg/kg)",129S6/SvEv mice [1]; [5],0.4723
same,freezing during CFC training,"129S6/SvEv mice [1]; male 129S6/SvEv, (R,S)-ketamine 30, prucalopride 3 or 10, PF-04995274 3 or 10 mg/kg, 1 week before CFC, vs saline",comparable levels of freezing
same,freezing at re-exposure to the training context (learned fear) vs saline,"129S6/SvEv mice [1]; male 129S6/SvEv, single i.p. injection 1 week before CFC, re-exposure 5 days later, 3 mg/kg",attenuated learned fear
same,"p, FST Day 2 Immobility Time (sec), Prucalopride (3 mg/kg) vs. PF04995274 (3 mg/kg)",129S6/SvEv mice [2]; [6],0.2475
same,"p, FST Day 2 Immobility Time (sec), Prucalopride (3 mg/kg) vs. PF04995274 (10 mg/kg)",129S6/SvEv mice [2]; [6],0.4224
same,"p, FST Day 2 Immobility Time (sec), Prucalopride (3 mg/kg) vs. Prucalopride (10 mg/kg)",129S6/SvEv mice [2]; [6],0.0568
same,"p, FST Day 2 Immobility Time (sec), Prucalopride (10 mg/kg) vs. PF04995274 (3 mg/kg)",129S6/SvEv mice [2]; [6],0.6674
same,"p, FST Day 2 Immobility Time (sec), Prucalopride (10 mg/kg) vs. PF04995274 (10 mg/kg)",129S6/SvEv mice [2]; [6],0.0209
same,"p, FST Day 2 Immobility Time (sec), Saline vs. Prucalopride (3 mg/kg)",129S6/SvEv mice [2]; [6],0.0052
same,"p, FST Day 2 Immobility Time (sec), Saline vs. Prucalopride (10 mg/kg)",129S6/SvEv mice [2]; [6],0.1772
same,"p, FST Day 2 Immobility Time (min 3-6) (sec), Prucalopride (3 mg/kg) vs. PF04995274 (3 mg/kg)",129S6/SvEv mice [2]; [7],0.4089
same,"p, FST Day 2 Immobility Time (min 3-6) (sec), Prucalopride (3 mg/kg) vs. PF04995274 (10 mg/kg)",129S6/SvEv mice [2]; [7],0.3387
same,"p, FST Day 2 Immobility Time (min 3-6) (sec), Prucalopride (3 mg/kg) vs. Prucalopride (10 mg/kg)",129S6/SvEv mice [2]; [7],0.0622
same,"p, FST Day 2 Immobility Time (min 3-6) (sec), Prucalopride (10 mg/kg) vs. PF04995274 (3 mg/kg)",129S6/SvEv mice [2]; [7],0.4653
same,"p, FST Day 2 Immobility Time (min 3-6) (sec), Saline vs. Prucalopride (3 mg/kg)",129S6/SvEv mice [2]; [7],0.0093
same,"p, FST Day 2 Immobility Time (min 3-6) (sec), Saline vs. Prucalopride (10 mg/kg)",129S6/SvEv mice [2]; [7],0.2443
same,"p, FST Day 2 Immobility Time (min 3-6) (sec), Prucalopride (10 mg/kg) vs. PF04995274","129S6/SvEv mice [2]; FIG. 4 cohort, Male, FIG. 4G, ANOVA, Fisher's LSD, PF04995274 dose stands below the shown rows",0.0156
same,"immobility, FST day 1","129S6/SvEv mice [2]; male 129S6/SvEv, (R,S)-ketamine 30, prucalopride 3 or 10, PF-04995274 3 or 10 mg/kg",comparable levels of immobility
same,"immobility time, FST day 2 vs saline","129S6/SvEv mice [2]; male 129S6/SvEv, single injection 1 week before CFC, 3 mg/kg",decreased immobility time
same,affinity for the hERG channels,[3],no affinity
same,Affinity (pKi),5-HT4R,8.1-8.6
same,average EPSC amplitude vs saline,CA3 pyramidal cells,no differences
same,large AMPA receptor-mediated bursts of EPSCs,CA3 pyramidal cells,not present
same,number of EPSCs vs saline,CA3 pyramidal cells,no differences
